Test results taken from the Kinase Knowledgebase extract (Sharma et al. 2016).

Target: EGFR (UniProt P00533)
Sequence (P00533 whole entry, looked up): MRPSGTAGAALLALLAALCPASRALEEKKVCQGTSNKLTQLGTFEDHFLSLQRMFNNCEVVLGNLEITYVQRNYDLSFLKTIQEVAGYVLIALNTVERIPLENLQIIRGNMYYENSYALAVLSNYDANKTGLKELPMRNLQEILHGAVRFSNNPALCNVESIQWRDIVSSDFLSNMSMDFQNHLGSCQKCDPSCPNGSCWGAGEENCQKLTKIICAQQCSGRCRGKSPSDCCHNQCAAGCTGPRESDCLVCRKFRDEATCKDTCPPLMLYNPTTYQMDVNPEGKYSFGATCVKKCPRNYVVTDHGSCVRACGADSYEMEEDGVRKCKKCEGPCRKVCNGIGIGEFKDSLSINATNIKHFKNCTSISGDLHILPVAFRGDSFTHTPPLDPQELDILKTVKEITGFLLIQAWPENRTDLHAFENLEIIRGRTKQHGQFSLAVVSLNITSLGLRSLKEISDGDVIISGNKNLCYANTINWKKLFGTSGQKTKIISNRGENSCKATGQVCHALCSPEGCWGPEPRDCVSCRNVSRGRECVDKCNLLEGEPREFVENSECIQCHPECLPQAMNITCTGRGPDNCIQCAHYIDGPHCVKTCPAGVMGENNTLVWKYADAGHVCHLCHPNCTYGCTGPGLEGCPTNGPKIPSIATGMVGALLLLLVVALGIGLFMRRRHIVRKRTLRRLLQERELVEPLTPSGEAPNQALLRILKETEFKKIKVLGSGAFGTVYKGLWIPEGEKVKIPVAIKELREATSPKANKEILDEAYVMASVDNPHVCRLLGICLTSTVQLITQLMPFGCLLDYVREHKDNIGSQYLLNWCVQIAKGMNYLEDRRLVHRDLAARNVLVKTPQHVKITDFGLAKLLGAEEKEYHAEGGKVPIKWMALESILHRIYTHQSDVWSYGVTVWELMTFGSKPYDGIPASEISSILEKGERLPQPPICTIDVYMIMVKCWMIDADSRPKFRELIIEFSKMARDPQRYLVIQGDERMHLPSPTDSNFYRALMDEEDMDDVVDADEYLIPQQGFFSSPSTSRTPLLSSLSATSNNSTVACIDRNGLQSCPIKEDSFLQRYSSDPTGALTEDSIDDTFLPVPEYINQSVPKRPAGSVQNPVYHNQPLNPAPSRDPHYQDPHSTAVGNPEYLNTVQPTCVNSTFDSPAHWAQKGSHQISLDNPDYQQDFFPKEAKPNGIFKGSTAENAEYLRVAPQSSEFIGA

Row | Structure (SMILES) | IC50
1 | O=c1cc(-c2ccccc2)oc2ccccc12 | 50 µM
2 | CCCCNC(=O)Nc1coc2ccccc2c1=O | > 100 µM
3 | CN(C)C(=O)Nc1coc2ccccc2c1=O | > 100 µM
4 | CC(C)(C)NC(=O)Nc1coc2ccccc2c1=O | > 100 µM
5 | CNC(=O)Nc1csc2ccccc2c1=O | > 100 µM
6 | CNC(=O)Nc1coc2ccccc2c1=O | > 100 µM
7 | CCNC(=O)Nc1coc2ccccc2c1=O | > 100 µM
8 | CCNC(=O)Nc1csc2ccc(F)cc2c1=O | > 100 µM
9 | O=c1cc(-c2ccc(O)cc2)oc2cc(O)cc(O)c12 | 25 µM
10 | CN(C)Cc1coc2ccccc2c1=O | > 100 µM
11 | O=C(O)C(=O)Nc1csc2ccccc2c1=O | > 100 µM
12 | CCNC(=O)Nc1csc2ccc(C)cc2c1=O | > 100 µM
13 | O=C(O)C(=O)Nc1cc(=O)c2ccccc2s1 | > 100 µM
14 | COC(=O)C(=O)Nc1csc2ccccc2c1=O | > 100 µM
15 | CCC(=O)Nc1csc2ccccc2c1=O | > 100 µM
16 | CCNC(=O)Nc1csc2ccccc2c1=O | > 100 µM
17 | O=C(CCO)Nc1csc2ccccc2c1=O | > 100 µM
18 | CC(C)NC(=O)Nc1coc2ccccc2c1=O | > 100 µM
19 | CCCCNC(=O)Nc1csc2ccccc2c1=O | > 100 µM
20 | CCNC(=O)NC1=CS(=O)(=O)c2ccccc2C1=O | > 100 µM
21 | CCOC(=O)NC(=O)Nc1csc2ccccc2c1=O | > 100 µM
22 | CCNC(=O)Nc1csc2ccc(OC)cc2c1=O | > 100 µM
